Columns and labels:
Histone deacetylase 5 = Histone deacetylase 5 (Homo sapiens, UniProt Q9UQL6); assay: Inhibition of recombinant human HDAC5 using Boc-Lys(TFA)-AMC as substrate preincubated for 10 mins followed by substrate addition and measured after 30 mins by fluorescence-based assay
Histone deacetylase 9 = Histone deacetylase 9 (Homo sapiens, UniProt Q9UKV0); assay: Inhibition of recombinant human HDAC9 using Boc-Lys(TFA)-AMC as substrate preincubated for 10 mins followed by substrate addition and measured after 30 mins by fluorescence-based assay
[1] = Half life in CD1 mouse pooled liver microsomes assessed as parent compound remaining measured up to 60 mins in presence of NADPH by LC-MS/MS analysis; assay type: ADME, Microsome; conditions: CD1, mouse, pooled liver microsomes
Histone deacetylase 3 = Histone deacetylase 3 (Homo sapiens, UniProt O15379); assay: Inhibition of recombinant human HDAC3 using Ac-GAK(Ac)-AMC as substrate preincubated for 10 mins followed by substrate addition and measured after 30 mins by fluorescence-based assay
[2] = Half life in liver microsomes; assay type: ADME, Microsome
Histone deacetylase 7 = molecular target: T1, Histone deacetylase 7 (Homo sapiens, UniProt Q8WUI4)
T1 sequence (Q8WUI4 whole entry): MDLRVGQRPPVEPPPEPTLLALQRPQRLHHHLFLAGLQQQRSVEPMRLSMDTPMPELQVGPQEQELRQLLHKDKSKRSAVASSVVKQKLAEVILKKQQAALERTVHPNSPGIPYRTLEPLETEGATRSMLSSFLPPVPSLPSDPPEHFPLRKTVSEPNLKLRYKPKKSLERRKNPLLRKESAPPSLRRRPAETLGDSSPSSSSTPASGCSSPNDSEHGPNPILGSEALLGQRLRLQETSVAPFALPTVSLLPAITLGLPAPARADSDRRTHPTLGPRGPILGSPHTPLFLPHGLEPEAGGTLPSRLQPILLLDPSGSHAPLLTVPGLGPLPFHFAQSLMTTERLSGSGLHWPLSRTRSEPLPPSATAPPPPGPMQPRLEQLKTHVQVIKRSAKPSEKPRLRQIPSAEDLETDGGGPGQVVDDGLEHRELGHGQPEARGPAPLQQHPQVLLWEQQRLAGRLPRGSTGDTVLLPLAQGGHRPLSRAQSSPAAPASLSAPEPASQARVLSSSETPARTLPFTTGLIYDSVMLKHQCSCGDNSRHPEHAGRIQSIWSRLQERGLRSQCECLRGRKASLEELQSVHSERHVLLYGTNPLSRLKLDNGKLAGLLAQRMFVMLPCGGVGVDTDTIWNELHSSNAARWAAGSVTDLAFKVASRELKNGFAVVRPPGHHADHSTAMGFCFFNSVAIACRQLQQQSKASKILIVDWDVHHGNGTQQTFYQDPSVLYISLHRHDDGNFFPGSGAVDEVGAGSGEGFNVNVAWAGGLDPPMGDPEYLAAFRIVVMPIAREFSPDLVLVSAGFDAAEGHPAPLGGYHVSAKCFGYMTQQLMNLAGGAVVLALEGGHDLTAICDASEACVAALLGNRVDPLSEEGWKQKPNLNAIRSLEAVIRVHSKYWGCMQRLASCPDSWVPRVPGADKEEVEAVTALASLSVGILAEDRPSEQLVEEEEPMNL
Description: Inhibition of recombinant human HDAC7 using Boc-Lys(TFA)-AMC as substrate preincubated for 10 mins followed by substrate addition and measured after 30 mins by fluorescence-based assay

[3] = molecular target: T2, Protein deacetylase HDAC6 (Mus musculus) (UniProt Q9Z2V5); assay: In vivo inhibition of HDAC6 in wild type mouse assessed as increase in alpha-tubulin acetylation in sciatic nerve tissue at 20 mg/kg, ip administered for 12 hrs by immunoblot analysis relative to control; assay type: functional, organism-based; set-up: scale not given: the % may be the effect or the level left
T2 sequence (whole entry): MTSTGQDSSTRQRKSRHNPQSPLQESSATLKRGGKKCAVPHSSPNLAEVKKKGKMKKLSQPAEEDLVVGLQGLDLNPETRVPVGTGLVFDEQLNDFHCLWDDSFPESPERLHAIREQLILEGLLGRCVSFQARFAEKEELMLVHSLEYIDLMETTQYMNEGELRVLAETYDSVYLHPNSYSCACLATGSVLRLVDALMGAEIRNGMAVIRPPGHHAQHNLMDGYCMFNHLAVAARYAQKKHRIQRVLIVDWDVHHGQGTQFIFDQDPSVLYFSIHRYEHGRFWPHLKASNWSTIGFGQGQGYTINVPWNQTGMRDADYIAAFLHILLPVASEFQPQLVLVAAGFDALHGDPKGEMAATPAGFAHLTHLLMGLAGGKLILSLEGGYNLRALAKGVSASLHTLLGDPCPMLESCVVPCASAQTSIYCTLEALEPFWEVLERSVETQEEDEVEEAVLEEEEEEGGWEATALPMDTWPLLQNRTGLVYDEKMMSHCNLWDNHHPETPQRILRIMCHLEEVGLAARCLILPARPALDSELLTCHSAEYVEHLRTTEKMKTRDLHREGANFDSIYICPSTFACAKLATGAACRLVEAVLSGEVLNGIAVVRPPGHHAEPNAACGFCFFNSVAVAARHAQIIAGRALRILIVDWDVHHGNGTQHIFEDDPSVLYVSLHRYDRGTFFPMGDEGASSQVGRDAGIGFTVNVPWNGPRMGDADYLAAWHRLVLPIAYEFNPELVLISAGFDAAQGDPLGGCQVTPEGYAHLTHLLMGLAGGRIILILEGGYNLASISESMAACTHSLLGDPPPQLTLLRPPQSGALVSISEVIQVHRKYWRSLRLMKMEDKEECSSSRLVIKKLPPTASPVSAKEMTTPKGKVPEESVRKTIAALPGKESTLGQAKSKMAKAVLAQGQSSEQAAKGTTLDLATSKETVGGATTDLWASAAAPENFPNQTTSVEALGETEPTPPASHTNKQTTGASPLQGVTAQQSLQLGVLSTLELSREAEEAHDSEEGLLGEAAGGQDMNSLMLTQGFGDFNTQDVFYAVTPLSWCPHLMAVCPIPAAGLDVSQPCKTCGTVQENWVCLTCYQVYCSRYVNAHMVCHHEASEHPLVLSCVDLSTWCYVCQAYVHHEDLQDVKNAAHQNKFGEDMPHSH

[4] = Half life in hepatocytes; assay type: ADME, cell-based, Hepatocyte
[5] = molecular target: T2, Protein deacetylase HDAC6 (Mus musculus); assay: Inhibition of HDAC6 in mouse Neuro2a cells assessed as fold increase in ratio of acetylated alpha-tubulin to alpha tubulin at 0.01 uM incubated for overnight by Western blot analysis; assay type: cell-based; conditions: time 12.0 hrs
Histone deacetylase 8 = molecular target: T3, Histone deacetylase 8 (Homo sapiens, UniProt Q9BY41)
T3 sequence (Q9BY41 whole entry): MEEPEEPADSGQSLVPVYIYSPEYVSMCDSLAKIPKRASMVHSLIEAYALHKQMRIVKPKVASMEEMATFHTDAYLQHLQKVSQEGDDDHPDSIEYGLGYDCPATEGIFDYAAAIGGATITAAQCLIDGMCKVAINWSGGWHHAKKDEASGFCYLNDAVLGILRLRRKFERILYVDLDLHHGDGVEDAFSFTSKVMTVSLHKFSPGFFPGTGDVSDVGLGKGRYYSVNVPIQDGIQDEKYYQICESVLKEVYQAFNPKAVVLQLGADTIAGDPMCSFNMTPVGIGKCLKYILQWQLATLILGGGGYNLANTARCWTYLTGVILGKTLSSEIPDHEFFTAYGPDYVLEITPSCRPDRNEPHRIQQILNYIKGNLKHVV
Description: Inhibition of recombinant human HDAC8 using Boc-Lys(TFA)-AMC as substrate preincubated for 10 mins followed by substrate addition and measured after 30 mins by fluorescence-based assay

[6] = molecular target: T2, Protein deacetylase HDAC6 (Mus musculus); assay: Inhibition of HDAC6 in mouse Neuro2a cells assessed as fold increase in ratio of acetylated alpha-tubulin to alpha tubulin at 1 uM incubated for overnight by Western blot analysis; assay type: cell-based; conditions: time 12.0 hrs
[7] = Half life in human pooled liver microsomes assessed as parent compound remaining measured up to 60 mins in presence of NADPH by LC-MS/MS analysis; assay type: ADME, Microsome
Histone deacetylase 4 = Histone deacetylase 4 (Homo sapiens, UniProt P56524); assay: Inhibition of recombinant human HDAC4 using Boc-Lys(TFA)-AMC as substrate preincubated for 10 mins followed by substrate addition and measured after 30 mins by fluorescence-based assay
Histone deacetylase 2 = Histone deacetylase 2 (Homo sapiens, UniProt Q92769); assay: Inhibition of recombinant human HDAC2 using Ac-GAK(Ac)-AMC as substrate preincubated for 10 mins followed by substrate addition and measured after 30 mins by fluorescence-based assay
[8] = Stability in CD1 mouse pooled liver microsomes assessed as parent compound remaining measured at 60 mins in presence of NADPH by LC-MS/MS analysis; assay type: ADME, Microsome; conditions: CD1, mouse, pooled liver microsomes, read-out: Stabilty
[9] = Stability in human pooled liver microsomes assessed as parent compound remaining measured at 60 mins in presence of NADPH by LC-MS/MS analysis; assay type: ADME, Microsome
[10] = molecular target: T4, Protein deacetylase HDAC6 (Homo sapiens, UniProt Q9UBN7); assay: biochemical
T4 sequence (Q9UBN7 whole entry): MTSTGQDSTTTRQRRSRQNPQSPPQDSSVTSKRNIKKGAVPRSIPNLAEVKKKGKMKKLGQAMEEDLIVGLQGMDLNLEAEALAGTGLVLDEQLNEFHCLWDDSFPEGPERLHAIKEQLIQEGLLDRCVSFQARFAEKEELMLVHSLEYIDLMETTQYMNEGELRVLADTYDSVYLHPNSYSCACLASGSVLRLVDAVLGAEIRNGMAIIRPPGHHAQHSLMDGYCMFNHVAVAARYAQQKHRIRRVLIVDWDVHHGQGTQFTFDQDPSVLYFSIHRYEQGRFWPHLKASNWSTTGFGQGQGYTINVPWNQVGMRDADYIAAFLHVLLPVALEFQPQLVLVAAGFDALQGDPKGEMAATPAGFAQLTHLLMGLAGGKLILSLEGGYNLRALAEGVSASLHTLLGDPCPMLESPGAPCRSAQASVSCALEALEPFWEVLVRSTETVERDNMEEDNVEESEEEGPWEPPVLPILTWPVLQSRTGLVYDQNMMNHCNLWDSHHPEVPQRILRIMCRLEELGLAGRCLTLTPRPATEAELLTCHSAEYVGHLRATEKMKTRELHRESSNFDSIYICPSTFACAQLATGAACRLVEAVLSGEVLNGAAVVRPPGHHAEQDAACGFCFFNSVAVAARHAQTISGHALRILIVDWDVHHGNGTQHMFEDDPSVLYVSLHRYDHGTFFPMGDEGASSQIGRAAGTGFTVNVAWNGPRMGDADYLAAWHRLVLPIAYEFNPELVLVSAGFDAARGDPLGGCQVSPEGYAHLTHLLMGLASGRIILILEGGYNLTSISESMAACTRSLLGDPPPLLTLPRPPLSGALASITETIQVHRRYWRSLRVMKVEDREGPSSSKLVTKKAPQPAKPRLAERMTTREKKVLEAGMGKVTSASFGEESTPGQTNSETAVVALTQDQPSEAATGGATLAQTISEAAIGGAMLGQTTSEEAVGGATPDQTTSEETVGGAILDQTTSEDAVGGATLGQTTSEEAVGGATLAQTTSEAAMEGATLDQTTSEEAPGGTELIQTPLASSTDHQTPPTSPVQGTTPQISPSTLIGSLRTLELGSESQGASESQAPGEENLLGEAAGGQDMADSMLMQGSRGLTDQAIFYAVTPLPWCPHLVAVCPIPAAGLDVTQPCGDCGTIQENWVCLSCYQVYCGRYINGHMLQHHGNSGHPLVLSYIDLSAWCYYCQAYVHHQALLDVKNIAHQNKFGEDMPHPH
Description: Inhibition of full length recombinant N-terminal GST-tagged human HDAC6 expressed in baculovirus infected Sf9 insect cells using RHK-K(Ac)-AMC peptide as substrate measured after 90 mins by fluorimetry analysis

Histone deacetylase 1 = Histone deacetylase 1 (Homo sapiens, UniProt Q13547); assay: Inhibition of full length recombinant C-terminal FLAG-His-tagged human HDAC1 expressed in baculovirus infected Sf21 insect cells using RHK-K(Ac)-AMC peptide as substrate measured after 60 mins by fluorimetry analysis
Homo sapiens = organism: Homo sapiens; assay: Selectivity index, ratio of IC50 for full length recombinant C-terminal FLAG-His-tagged human HDAC1 expressed in baculovirus infected Sf21 insect cells using RHK-K(Ac)-AMC peptide as substrate measured after 60 mins by fluorimetry analysis to IC50 for full length recombinant N-terminal GST-tagged …
Description: Selectivity index, ratio of IC50 for full length recombinant C-terminal FLAG-His-tagged human HDAC1 expressed in baculovirus infected Sf21 insect cells using RHK-K(Ac)-AMC peptide as substrate measured after 60 mins by fluorimetry analysis to IC50 for full length recombinant N-terminal GST-tagged human HDAC6 expressed in baculovirus infected Sf9 insect cells using RHK-K(Ac)-AMC peptide as substrate measured after 90 mins by fluorimetry analysis

Sequence of Histone deacetylase 2 (Q92769 whole entry): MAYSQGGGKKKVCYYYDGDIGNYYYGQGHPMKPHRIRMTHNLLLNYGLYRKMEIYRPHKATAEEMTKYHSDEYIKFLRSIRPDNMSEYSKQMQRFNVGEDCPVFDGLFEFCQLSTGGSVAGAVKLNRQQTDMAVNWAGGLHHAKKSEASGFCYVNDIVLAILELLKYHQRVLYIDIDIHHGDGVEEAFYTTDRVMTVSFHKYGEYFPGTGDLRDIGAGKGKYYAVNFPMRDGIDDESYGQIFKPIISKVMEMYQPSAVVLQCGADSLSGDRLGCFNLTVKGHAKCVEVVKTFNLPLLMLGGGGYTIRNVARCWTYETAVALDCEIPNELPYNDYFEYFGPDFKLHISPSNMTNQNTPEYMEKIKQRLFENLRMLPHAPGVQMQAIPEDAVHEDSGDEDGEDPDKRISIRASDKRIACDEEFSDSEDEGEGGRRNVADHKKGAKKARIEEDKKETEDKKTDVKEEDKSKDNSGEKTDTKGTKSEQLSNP
Sequence of Histone deacetylase 4 (P56524 whole entry): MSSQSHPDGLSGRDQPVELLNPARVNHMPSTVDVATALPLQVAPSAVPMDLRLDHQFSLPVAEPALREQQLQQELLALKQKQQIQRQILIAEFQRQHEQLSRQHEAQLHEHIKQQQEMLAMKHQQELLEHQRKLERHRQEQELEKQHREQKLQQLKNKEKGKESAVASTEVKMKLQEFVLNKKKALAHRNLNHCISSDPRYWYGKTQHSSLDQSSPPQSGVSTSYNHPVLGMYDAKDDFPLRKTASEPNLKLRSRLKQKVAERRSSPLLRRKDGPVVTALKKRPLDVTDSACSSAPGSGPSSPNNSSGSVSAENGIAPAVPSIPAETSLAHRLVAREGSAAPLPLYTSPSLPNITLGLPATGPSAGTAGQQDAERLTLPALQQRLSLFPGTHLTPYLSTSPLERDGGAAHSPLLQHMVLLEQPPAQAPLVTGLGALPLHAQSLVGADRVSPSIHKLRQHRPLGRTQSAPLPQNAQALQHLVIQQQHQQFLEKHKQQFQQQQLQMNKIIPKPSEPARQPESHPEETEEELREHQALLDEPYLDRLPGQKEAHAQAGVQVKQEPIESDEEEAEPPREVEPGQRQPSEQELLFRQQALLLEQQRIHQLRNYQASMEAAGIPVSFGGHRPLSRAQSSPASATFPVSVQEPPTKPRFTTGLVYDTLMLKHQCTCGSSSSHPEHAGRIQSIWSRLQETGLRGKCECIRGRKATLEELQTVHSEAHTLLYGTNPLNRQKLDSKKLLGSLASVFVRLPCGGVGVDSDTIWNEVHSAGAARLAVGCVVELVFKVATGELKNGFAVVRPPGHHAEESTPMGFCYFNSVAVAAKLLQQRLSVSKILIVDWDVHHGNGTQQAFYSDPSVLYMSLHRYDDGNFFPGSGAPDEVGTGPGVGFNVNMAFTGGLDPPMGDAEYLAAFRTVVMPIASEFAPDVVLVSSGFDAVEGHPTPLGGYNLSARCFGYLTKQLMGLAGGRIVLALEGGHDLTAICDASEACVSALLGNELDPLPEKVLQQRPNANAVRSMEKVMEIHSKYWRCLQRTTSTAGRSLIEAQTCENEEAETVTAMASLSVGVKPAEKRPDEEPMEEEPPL
Sequence of Histone deacetylase 1 (Q13547 whole entry): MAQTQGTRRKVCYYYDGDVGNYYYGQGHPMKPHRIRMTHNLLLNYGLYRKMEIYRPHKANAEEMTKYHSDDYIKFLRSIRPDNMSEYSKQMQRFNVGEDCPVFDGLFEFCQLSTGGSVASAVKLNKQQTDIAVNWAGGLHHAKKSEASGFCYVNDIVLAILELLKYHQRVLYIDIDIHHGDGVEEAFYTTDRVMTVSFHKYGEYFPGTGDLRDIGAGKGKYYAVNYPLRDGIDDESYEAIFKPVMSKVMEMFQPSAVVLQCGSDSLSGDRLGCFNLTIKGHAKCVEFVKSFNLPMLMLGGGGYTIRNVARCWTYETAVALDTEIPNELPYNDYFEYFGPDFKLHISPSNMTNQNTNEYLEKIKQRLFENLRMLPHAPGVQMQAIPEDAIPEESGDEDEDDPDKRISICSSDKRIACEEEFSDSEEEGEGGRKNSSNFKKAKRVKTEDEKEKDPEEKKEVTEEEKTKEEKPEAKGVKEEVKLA
Sequence of Histone deacetylase 3 (O15379 whole entry): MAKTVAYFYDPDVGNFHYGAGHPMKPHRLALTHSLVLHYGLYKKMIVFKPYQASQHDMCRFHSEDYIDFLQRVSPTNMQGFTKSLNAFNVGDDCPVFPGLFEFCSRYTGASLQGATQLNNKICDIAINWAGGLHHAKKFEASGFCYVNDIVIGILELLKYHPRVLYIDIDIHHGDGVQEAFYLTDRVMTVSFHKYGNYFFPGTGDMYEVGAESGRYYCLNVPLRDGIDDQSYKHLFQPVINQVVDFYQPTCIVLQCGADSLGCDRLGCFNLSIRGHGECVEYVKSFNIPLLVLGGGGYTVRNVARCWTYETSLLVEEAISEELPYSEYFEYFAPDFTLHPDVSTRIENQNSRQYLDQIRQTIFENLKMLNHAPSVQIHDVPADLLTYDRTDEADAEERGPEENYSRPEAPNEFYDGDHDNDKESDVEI
Sequence of Histone deacetylase 5 (Q9UQL6 whole entry): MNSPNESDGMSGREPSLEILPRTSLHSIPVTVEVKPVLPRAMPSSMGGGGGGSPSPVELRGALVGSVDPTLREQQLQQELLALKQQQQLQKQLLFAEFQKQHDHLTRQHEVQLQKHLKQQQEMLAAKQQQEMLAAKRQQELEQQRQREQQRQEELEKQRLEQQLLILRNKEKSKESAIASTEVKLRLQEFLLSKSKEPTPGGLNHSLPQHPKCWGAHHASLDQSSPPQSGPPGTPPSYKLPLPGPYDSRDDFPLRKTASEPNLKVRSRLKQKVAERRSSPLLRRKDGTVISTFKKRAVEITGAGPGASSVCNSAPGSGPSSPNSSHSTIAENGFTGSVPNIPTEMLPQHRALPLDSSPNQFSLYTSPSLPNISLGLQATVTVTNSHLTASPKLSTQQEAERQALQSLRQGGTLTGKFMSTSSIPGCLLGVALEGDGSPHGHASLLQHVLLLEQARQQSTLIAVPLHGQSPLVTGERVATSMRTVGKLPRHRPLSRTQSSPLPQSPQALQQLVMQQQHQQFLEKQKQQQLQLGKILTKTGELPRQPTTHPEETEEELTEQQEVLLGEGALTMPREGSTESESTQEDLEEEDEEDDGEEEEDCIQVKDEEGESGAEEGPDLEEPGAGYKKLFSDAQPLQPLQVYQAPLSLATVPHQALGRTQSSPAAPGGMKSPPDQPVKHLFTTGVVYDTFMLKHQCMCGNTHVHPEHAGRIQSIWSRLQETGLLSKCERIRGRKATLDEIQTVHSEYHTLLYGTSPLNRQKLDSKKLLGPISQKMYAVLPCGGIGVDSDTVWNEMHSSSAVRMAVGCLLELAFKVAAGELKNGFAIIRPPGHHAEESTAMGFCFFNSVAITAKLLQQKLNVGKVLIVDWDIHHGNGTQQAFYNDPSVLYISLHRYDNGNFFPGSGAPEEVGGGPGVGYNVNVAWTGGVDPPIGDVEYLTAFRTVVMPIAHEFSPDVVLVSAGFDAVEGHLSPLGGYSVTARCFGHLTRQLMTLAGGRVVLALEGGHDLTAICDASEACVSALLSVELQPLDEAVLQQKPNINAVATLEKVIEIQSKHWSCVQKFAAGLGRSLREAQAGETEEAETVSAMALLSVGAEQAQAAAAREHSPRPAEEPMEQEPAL
Sequence of Histone deacetylase 9 (Q9UKV0 whole entry): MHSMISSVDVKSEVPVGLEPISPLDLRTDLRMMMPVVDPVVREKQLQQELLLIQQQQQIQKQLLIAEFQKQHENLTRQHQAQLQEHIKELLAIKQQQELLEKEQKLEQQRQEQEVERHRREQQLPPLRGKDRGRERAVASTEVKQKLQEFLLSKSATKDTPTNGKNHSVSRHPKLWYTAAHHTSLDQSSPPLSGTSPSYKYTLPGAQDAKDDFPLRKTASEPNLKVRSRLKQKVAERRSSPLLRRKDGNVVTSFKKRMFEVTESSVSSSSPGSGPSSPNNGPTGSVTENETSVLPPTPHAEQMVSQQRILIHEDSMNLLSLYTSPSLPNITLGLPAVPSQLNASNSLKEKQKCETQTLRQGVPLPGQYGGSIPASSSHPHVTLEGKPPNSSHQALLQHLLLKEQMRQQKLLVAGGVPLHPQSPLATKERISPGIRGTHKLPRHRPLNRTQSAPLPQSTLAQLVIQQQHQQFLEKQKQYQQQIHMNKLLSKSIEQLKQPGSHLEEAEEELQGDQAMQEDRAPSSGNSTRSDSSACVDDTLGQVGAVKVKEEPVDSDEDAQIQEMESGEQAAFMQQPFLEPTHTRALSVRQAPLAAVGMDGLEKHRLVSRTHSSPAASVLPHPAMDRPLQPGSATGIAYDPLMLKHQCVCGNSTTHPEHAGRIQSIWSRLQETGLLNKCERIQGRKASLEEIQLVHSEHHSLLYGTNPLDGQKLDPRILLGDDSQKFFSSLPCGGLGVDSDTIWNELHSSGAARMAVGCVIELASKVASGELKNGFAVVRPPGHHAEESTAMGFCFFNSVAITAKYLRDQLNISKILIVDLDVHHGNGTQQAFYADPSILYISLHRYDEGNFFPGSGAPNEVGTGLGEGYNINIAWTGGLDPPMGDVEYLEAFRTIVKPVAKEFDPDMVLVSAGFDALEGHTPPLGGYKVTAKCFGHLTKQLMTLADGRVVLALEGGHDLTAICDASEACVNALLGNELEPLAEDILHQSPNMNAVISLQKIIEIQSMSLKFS

O=C(NO)c1ccc(CN2CCCc3cc(Cl)ccc32)cc1
IC50 (Histone deacetylase 5): 1480 nM
IC50 (Histone deacetylase 9): 3.4 µM
half-life [1]: 31.9 min
IC50 (Histone deacetylase 3): 1270 nM
half-life [2]: < 30 min
IC50 (Histone deacetylase 7): 511 nM
Activity [3]: 125%
half-life [4]: < 30 min
fold change (FC) [5]: 1
IC50 (Histone deacetylase 8): 3.06 µM
fold change (FC) [6]: 1
t1/2 ([7]; microsomes, 1 h): 483 min
IC50 (Histone deacetylase 4): 2140 nM
IC50 (Histone deacetylase 2): 282 nM
remaining at 1 h [8]: 27.3%
Stabilty ([9]; microsomes, 1 h): 42.6%

O=C(NO)c1ccc(CN2CCCc3ccccc32)cc1
half-life [1]: 40.4 min
IC50 [10]: 11 µM
IC50 (Histone deacetylase 1): 15 nM
half-life ([7]; pooled liver microsomes): 182 min
remaining at 1 h [8]: 34.1%
Ratio IC50 (Homo sapiens): 733
remaining at 1 h ([9]; pooled liver microsomes, read-out: Stabilty): 73%
